Assay results reported in PMC4537469 (Protein & Cell, 2015).

How the values were obtained:
RXRα [1] = target: T1, RXRα (Homo sapiens, UniProt P19793, R316E); assay: mammalian one-hybrid reporter in MCF-7 cells ([…]); assay type: cell-based
T1 construct: gene RXRA; Gal4-DBD-RXRα-LBD
T1 sequence (P19793 223-462 R316E limits assumed): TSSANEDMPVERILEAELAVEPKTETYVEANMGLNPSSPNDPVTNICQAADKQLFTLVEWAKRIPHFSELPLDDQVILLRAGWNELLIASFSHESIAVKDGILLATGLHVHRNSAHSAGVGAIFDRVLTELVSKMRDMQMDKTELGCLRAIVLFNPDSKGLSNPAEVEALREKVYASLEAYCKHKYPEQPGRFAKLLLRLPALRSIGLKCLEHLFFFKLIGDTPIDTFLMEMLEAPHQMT

RXRα [2] = target: T1, RXRα; assay: mammalian one-hybrid reporter in MCF-7 cells, antagonism of CD3254 (N-6 at […]); assay type: cell-based
RXRα [3] = target: T2, RXRα (Homo sapiens, UniProt P19793, W305A); assay: SPR (BIAcore T200); assay type: binding
T2 construct: gene RXRA; RXRα-LBD
T2 sequence (P19793 223-462 W305A): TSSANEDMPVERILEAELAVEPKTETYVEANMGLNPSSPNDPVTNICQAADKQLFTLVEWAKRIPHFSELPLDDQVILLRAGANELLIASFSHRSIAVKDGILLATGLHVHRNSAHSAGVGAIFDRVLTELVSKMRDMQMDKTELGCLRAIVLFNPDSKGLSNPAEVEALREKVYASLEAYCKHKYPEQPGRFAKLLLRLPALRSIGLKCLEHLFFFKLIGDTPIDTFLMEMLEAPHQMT

RXRα [4] = target: T3, RXRα (Homo sapiens, UniProt P19793); assay: SPR (BIAcore T200); also [3H]9-cis-RA competition (IC50 […]), fluorescence binding, TR-FRET coactivator assay (IC50 […])
T3 construct: gene RXRA; His-tagged human RXRα-LBD (223–462)
T3 sequence (P19793 223-462): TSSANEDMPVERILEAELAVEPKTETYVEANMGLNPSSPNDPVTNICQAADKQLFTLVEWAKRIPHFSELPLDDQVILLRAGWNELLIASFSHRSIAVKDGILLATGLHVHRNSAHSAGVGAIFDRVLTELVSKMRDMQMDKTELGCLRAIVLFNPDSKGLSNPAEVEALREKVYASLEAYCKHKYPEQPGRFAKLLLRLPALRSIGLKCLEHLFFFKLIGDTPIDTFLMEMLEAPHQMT

[5] = target: the molecule itself; assay: native gel or EMSA; RXRα-LBD protein (2 mg/mL) incubated with DMSO, 10 μmol/L 9-cis-RA, 25 or 50 μmol/L N-6 for 3 h; 8% nondenaturing PAGE, Coomassie staining

Q: `Cc1cc2c(cc1-c1cc(/C=C/C(=O)O)ccc1O)C(C)(C)CCC2(C)C` [CD3254] was tested. Which “mammalian one-hybrid reporter in MCF-7 cells (10^-7 mol/L)” value (RXRα [1]) did it give?
A: The value was “CD3254 was able to stimulate the transactivation of the mutant”.

Q: For `C/C(=N/O)c1sc(-n2nc(-c3ccccc3)cc2-c2ccccc2)nc1C` [N-6, (NZ)-N-[1-[2-(3,5-diphenylpyrazol-1-yl)-4-methyl-1,3-thiazol-5-yl]ethylidene]droxylamine], which “mammalian one-hybrid reporter in MCF-7 cells, antagonism of CD3254 (N-6 at 10 μm)” value (RXRα [2]) is on record?
A: Its value is “CD3254-induced transactivation of RXRα-LBD/R316E was potently inhibited by N-6”.

Q: And the Kd (RXRα [3])?
A: The Kd was 1000 µM.

Q: And the Kd (RXRα [4])?
A: Its Kd is 15.7 µM.

B1: His-tagged human RXRα-LBD (223–462) (domain or fragment, UniProt P19793 223-462, looked up)
chain: TSSANEDMPVERILEAELAVEPKTETYVEANMGLNPSSPNDPVTNICQAADKQLFTLVEWAKRIPHFSELPLDDQVILLRAGWNELLIASFSHRSIAVKDGILLATGLHVHRNSAHSAGVGAIFDRVLTELVSKMRDMQMDKTELGCLRAIVLFNPDSKGLSNPAEVEALREKVYASLEAYCKHKYPEQPGRFAKLLLRLPALRSIGLKCLEHLFFFKLIGDTPIDTFLMEMLEAPHQMT
Q: B1 was tested. Which “stoichiometry N” value [5] did it give?
A: Its value is 2.
